Assay results taken from ChEMBL document CHEMBL4304809 (ACS Med Chem Lett, 2019).
Values after ≈ are worked out from the molar mass of the structure shown. Active and inactive are the calls of the source. No cut-off for these calls is given here.

Target: T1, Serine/threonine-protein kinase D1 (Homo sapiens, UniProt Q15139)
T1 sequence (Q15139 whole entry): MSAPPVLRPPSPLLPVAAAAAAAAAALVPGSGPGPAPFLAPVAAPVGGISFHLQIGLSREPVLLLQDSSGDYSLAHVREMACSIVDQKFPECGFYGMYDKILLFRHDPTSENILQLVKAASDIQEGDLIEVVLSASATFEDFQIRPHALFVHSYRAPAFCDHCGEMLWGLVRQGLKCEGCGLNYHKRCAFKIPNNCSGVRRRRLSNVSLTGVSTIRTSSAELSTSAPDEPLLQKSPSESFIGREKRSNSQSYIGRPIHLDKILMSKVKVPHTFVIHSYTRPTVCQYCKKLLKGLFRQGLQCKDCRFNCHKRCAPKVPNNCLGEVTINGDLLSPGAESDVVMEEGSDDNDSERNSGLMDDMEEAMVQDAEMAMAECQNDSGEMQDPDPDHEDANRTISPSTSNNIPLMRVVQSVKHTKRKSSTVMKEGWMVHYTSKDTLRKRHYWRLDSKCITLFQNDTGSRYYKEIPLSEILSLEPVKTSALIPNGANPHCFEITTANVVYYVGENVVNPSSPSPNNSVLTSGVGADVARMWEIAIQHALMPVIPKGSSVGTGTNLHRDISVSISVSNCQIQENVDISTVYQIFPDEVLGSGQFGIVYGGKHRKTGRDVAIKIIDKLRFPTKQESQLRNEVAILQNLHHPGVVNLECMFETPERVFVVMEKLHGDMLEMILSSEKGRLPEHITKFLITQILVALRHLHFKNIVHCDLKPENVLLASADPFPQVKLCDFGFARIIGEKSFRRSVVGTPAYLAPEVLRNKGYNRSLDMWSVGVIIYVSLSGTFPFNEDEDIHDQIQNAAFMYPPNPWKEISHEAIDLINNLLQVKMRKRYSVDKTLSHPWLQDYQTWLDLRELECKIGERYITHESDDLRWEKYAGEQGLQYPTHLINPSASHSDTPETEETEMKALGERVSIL
Test: Inhibition of full length GST-tagged human PRKD1 expressed in Baculovirus expression system using ATP as substrate incubated for 1 to 2 hrs by transcreener ADP assay based fluorescence correlation spectroscopic analysis
Conditions: not given

Ki | SMILES
25 nM | NC(=O)c1cn2c(n1)-c1cc(C#CC3(O)CCCC3)ccc1C1CC2C1
< 0.2 nM | CNC(=O)c1c(C(N)=O)nc2n1C1CC(C1)c1ccc(C#CC(C)(C)c3ncc(C)o3)cc1-2
0.9 nM | Cc1cc([C@](C)(O)C#Cc2ccc3c(c2)-c2nc(C(N)=O)cn2C2CC3C2)no1
44 nM | NC(=O)c1cn2c(n1)-c1cc(C#CC3CCCC3)ccc1C1CC2C1
< 0.2 nM | Cc1cc([C@](C)(O)C#Cc2cc3c(cc2F)C2CC(C2)n2c-3nc(C(N)=O)c2C2CC2)no1
3.6 nM | CCOc1nc2ccc(C#C[C@@](C)(O)c3ncc(C)o3)cc2n1-c1ccnc(N)n1
< 0.2 nM | Cc1cc([C@@](C)(O)C#Cc2ccc3c(c2)-c2nc(C(N)=O)c(C4CC4)n2CCO3)no1
5.9 nM | Cc1cc([C@](C)(O)C#Cc2cc3c(cc2F)C2CC(C2)n2cc(C(N)=O)nc2-3)no1
4.2 nM | Cc1cnc([C@@](C)(O)C#Cc2ccc3c(c2)-c2nc(C(N)=O)cn2C2CC3C2)o1
< 0.2 nM | Cc1cnc([C@](C)(O)C#Cc2ccc3c(c2)-c2nc(C(N)=O)cn2C2CC3C2)o1
14 nM | Cc1cc([C@@](C)(O)C#Cc2ccc3c(c2)-c2nc(C(N)=O)cn2CCO3)no1
4.9 nM | Cc1cc([C@](C)(O)C#Cc2ccc3c(c2)-c2nc(C(N)=O)cn2CCO3)no1
< 0.2 nM | Cc1cnc(C(C)(C)C#Cc2ccc3c(c2)-c2nc(C(N)=O)c(C4CC4)n2C2CC3C2)o1
62 nM | CCOc1nc2ccc(C#C[C@](C)(O)c3ncc(C)o3)cc2n1-c1ccnc(N)n1
65 nM | Cc1cc([C@@](C)(O)C#Cc2ccc3c(c2)-c2nc(C(N)=O)cn2C2CC3C2)no1

Target: Mitogen-activated protein kinase kinase kinase 14 (Homo sapiens, UniProt Q99558)
Sequence (Q99558 whole entry): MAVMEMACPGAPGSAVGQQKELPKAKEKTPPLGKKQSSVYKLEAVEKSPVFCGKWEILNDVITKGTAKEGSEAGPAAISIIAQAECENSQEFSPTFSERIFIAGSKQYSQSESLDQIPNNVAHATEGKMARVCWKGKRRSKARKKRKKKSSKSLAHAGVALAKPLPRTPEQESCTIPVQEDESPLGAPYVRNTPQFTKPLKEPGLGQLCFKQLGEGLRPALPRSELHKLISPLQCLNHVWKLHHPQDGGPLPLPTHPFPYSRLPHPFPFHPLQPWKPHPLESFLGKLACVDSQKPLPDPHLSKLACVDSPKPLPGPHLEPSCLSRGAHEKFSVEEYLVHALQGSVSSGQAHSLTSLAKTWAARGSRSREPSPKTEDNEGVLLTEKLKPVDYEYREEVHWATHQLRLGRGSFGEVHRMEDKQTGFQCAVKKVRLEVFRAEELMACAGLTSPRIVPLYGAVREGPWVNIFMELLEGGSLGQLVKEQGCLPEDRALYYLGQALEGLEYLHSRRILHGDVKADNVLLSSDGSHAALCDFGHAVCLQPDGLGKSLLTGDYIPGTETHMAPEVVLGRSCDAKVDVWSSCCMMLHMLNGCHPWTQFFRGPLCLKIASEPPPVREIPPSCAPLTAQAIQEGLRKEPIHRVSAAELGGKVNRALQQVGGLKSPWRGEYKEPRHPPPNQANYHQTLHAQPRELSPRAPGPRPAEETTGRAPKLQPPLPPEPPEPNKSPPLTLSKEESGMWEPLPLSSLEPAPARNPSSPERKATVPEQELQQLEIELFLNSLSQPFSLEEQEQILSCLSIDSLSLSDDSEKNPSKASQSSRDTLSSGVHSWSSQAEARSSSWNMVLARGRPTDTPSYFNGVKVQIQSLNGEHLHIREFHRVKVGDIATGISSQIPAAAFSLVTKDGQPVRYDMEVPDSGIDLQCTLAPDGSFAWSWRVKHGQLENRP
Test: Inhibition of NIK (unknown origin) using ATP as substrate by transcreener ADP assay based fluorescence correlation spectroscopic analysis
Type: single protein
Conditions: not given

Ki | SMILES
10 nM | NC(=O)c1cn2c(n1)-c1cc(C#CC3(O)CCCC3)ccc1C1CC2C1
> 1250 nM | CNC(=O)c1c(C(N)=O)nc2n1C1CC(C1)c1ccc(C#CC(C)(C)c3ncc(C)o3)cc1-2
0.8 nM | Cc1cc([C@](C)(O)C#Cc2ccc3c(c2)-c2nc(C(N)=O)cn2C2CC3C2)no1
> 1250 nM | NC(=O)c1cn2c(n1)-c1cc(C#CC3CCCC3)ccc1C1CC2C1
0.16 nM | CCOc1nc2ccc(C#C[C@@](C)(O)c3ncc(C)o3)cc2n1-c1ccnc(N)n1
≥ 1250 nM | Cc1cc([C@@](C)(O)C#Cc2ccc3c(c2)-c2nc(C(N)=O)c(C4CC4)n2CCO3)no1
1 nM | Cc1cc([C@](C)(O)C#Cc2cc3c(cc2F)C2CC(C2)n2cc(C(N)=O)nc2-3)no1
14 nM | CNC(=O)c1c(C(N)=O)nc2n1C1CC(C1)c1cc(F)c(C#C[C@@](C)(O)c3cc(C)on3)cc1-2
> 250 nM | Cc1cc([C@@](C)(O)C#Cc2ccc3c(c2)-c2nc(C(N)=O)cn2CCO3)no1
3.1 nM | Cc1cc([C@](C)(O)C#Cc2ccc3c(c2)-c2nc(C(N)=O)cn2CCO3)no1
> 1250 nM | Cc1cnc(C(C)(C)C#Cc2ccc3c(c2)-c2nc(C(N)=O)c(C4CC4)n2C2CC3C2)o1
634 nM | CCOc1nc2ccc(C#C[C@](C)(O)c3ncc(C)o3)cc2n1-c1ccnc(N)n1
582 nM | Cc1cc([C@@](C)(O)C#Cc2ccc3c(c2)-c2nc(C(N)=O)cn2C2CC3C2)no1

System: not listed separately
Test: Lipophilicity, log D of the compound at pH 7.4
Type: physicochemical
Conditions: buffer

logD | SMILES
3.7 | CNC(=O)c1c(C(N)=O)nc2n1C1CC(C1)c1ccc(C#CC(C)(C)c3ncc(C)o3)cc1-2
3.7 | Cc1cc([C@](C)(O)C#Cc2cc3c(cc2F)C2CC(C2)n2c-3nc(C(N)=O)c2C2CC2)no1
2 | Cc1cc([C@@](C)(O)C#Cc2ccc3c(c2)-c2nc(C(N)=O)c(C4CC4)n2CCO3)no1
4.4 | Cc1cnc(C(C)(C)C#Cc2ccc3c(c2)-c2nc(C(N)=O)c(C4CC4)n2C2CC3C2)o1

Target: T2, Serine/threonine-protein kinase D1 (Homo sapiens) (UniProt Q15139)
T2 sequence (whole entry): T1 sequence (Q15139 whole entry)
Test: Inhibition of full length GST-tagged recombinant human PRKD1 expressed in Baculovirus expression system at 0.1 uM using Fluorescein-CREBtide as substrate incubated for 1 hr by TR-FRET assay relative to control
Conditions: not given

inhibition | SMILES
Active | CNC(=O)c1c(C(N)=O)nc2n1C1CC(C1)c1ccc(C#CC(C)(C)c3ncc(C)o3)cc1-2
> 30% | Cc1cc([C@@](C)(O)C#Cc2ccc3c(c2)-c2nc(C(N)=O)c(C4CC4)n2CCO3)no1

Target: RAC-alpha serine/threonine-protein kinase (Homo sapiens) (UniProt P31749)
Sequence (P31749 whole entry): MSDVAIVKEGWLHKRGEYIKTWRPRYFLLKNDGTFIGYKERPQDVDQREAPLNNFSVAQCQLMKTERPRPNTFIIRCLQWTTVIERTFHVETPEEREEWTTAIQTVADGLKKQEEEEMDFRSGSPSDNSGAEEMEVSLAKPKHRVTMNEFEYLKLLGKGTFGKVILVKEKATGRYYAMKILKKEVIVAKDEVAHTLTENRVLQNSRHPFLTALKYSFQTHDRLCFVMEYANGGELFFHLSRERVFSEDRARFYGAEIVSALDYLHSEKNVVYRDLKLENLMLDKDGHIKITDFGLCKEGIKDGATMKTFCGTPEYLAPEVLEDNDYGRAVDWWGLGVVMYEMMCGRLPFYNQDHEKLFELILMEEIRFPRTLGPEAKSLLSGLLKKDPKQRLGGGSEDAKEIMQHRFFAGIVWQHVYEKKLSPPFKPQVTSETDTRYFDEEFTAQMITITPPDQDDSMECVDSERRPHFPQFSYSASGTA
Test: Inhibition of full length His-tagged recombinant human AKT1 expressed in Baculovirus expression system at 0.1 uM using Fluorescein-Crosstide as substrate incubated for 1 hr by TR-FRET assay relative to control
Conditions: not given

inhibition | SMILES
4% | Cc1cc([C@@](C)(O)C#Cc2ccc3c(c2)-c2nc(C(N)=O)c(C4CC4)n2CCO3)no1

Target: Tyrosine-protein kinase JAK1 (Homo sapiens) (UniProt P23458)
Test: Inhibition of recombinant GST-tagged human JAK1 catalytic domain (866 to 1154 residues) expressed in Baculovirus expression system at 0.1 uM using GFP-STAT1 as substrate incubated for 1 hr by TR-FRET assay relative to control
Conditions: not given

inhibition | SMILES
1% | Cc1cc([C@@](C)(O)C#Cc2ccc3c(c2)-c2nc(C(N)=O)c(C4CC4)n2CCO3)no1

Target: Mitogen-activated protein kinase kinase kinase kinase 4 (Homo sapiens) (UniProt O95819)
Sequence (O95819 2-1239 limits assumed): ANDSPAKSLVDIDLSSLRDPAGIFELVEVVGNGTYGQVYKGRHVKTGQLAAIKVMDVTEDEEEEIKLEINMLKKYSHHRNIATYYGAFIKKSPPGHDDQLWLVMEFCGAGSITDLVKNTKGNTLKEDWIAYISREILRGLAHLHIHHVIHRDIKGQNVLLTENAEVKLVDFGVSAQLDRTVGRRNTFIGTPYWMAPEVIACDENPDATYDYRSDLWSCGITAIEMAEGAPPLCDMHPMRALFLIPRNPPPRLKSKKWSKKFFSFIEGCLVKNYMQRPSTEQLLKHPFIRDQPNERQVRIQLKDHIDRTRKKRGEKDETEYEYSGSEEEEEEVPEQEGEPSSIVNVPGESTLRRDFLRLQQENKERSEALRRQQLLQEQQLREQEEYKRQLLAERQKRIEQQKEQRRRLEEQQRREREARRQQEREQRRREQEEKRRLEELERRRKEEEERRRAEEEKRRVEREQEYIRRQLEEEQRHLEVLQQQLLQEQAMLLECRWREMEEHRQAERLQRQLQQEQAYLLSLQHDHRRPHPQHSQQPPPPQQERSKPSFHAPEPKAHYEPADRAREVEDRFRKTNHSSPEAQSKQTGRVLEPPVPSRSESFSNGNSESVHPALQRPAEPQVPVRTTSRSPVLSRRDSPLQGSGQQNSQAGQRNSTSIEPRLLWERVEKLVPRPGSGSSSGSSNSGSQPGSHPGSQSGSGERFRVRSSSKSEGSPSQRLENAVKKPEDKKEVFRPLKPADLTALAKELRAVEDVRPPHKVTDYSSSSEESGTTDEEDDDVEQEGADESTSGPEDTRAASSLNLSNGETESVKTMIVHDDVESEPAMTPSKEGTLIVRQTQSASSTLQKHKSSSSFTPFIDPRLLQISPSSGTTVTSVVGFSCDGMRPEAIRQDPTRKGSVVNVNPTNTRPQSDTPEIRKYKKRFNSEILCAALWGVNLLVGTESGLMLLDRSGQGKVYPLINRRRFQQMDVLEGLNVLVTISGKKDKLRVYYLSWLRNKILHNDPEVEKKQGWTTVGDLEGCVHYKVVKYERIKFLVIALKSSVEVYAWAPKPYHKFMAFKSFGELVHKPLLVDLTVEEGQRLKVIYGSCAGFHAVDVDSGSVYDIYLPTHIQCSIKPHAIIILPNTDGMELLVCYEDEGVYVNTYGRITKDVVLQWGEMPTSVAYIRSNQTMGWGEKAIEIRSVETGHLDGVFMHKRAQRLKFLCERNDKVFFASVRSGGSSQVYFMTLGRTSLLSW
Test: Inhibition of recombinant GST-tagged human MAP4K4 catalytic domain (1 to 328 residues) expressed in Baculovirus expression system at 0.1 uM using Fluorescein-PKC as substrate incubated for 1 hr by TR-FRET assay relative to control
Conditions: not given

inhibition | SMILES
57% | CNC(=O)c1c(C(N)=O)nc2n1C1CC(C1)c1ccc(C#CC(C)(C)c3ncc(C)o3)cc1-2
21% | Cc1cc([C@@](C)(O)C#Cc2ccc3c(c2)-c2nc(C(N)=O)c(C4CC4)n2CCO3)no1

Target: Misshapen-like kinase 1 (Homo sapiens) (UniProt Q8N4C8)
Sequence (Q8N4C8 whole entry, looked up, the tested form may be a part): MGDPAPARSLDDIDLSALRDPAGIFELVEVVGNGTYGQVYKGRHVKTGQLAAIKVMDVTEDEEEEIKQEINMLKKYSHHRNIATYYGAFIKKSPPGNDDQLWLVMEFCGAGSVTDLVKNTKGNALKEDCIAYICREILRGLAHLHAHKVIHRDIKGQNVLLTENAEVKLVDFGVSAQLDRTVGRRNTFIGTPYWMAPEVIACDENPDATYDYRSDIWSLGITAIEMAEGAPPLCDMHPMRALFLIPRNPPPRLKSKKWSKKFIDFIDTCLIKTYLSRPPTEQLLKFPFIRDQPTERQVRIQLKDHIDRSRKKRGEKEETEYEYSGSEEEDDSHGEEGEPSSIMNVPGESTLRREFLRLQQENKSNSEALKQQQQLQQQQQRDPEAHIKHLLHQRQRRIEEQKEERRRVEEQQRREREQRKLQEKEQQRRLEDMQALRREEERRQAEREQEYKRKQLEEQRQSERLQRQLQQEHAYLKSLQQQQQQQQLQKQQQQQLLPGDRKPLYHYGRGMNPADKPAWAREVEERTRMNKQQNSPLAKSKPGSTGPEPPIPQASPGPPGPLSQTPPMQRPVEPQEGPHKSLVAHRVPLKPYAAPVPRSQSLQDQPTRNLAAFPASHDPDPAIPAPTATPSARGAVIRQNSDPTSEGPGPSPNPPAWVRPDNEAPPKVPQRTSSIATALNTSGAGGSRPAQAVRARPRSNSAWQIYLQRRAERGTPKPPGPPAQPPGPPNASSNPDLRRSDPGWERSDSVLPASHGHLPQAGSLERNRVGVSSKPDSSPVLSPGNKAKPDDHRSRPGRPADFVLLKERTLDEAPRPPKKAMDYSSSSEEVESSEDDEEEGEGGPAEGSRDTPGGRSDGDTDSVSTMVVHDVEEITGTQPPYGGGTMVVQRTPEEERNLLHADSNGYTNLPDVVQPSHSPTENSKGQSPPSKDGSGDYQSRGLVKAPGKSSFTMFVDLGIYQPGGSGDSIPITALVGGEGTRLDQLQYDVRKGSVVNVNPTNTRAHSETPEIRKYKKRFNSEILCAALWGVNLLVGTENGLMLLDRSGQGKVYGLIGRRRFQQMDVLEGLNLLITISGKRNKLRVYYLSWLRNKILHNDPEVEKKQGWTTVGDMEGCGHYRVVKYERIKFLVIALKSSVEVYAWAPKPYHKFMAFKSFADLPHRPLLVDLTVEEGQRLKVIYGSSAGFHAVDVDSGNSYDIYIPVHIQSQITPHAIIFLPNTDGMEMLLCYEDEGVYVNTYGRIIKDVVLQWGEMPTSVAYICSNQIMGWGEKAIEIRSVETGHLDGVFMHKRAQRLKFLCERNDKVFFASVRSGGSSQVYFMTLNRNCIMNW
Test: Inhibition of recombinant GST-tagged human MINK1 catalytic domain (1 to 320 residues) expressed in Baculovirus expression system at 0.1 uM using Fluorescein-PKC as substrate incubated for 1 hr by TR-FRET assay relative to control
Conditions: not given

inhibition | SMILES
51% | CNC(=O)c1c(C(N)=O)nc2n1C1CC(C1)c1ccc(C#CC(C)(C)c3ncc(C)o3)cc1-2
20% | Cc1cc([C@@](C)(O)C#Cc2ccc3c(c2)-c2nc(C(N)=O)c(C4CC4)n2CCO3)no1

Target: Serine/threonine-protein kinase PAK 4 (Homo sapiens) (UniProt O96013)
Sequence (O96013 whole entry, looked up, the tested form may be a part): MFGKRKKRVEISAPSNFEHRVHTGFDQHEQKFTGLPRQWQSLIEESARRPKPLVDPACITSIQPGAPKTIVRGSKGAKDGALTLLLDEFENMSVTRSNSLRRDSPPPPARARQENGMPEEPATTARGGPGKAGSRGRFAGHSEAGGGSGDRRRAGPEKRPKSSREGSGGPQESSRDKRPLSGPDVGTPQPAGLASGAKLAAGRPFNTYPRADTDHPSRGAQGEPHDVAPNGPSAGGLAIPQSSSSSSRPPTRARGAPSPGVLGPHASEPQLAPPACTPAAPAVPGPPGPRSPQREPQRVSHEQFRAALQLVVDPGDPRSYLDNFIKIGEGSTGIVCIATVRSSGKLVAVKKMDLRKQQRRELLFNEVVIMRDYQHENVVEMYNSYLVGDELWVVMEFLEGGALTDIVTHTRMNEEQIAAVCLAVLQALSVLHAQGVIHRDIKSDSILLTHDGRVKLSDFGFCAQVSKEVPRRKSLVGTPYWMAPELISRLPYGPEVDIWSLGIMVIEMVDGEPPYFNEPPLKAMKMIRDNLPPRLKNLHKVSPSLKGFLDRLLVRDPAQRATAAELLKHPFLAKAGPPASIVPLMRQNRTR
Test: Inhibition of recombinant GST-tagged human PAK4 catalytic domain (295 to 591 residues) expressed in Baculovirus expression system at 0.1 uM using Fluorescein-Crosstide as substrate incubated for 1 hr by TR-FRET assay relative to control
Conditions: not given

inhibition | SMILES
7% | Cc1cc([C@@](C)(O)C#Cc2ccc3c(c2)-c2nc(C(N)=O)c(C4CC4)n2CCO3)no1

Target: Aurora kinase B (Homo sapiens) (UniProt Q96GD4)
Sequence (Q96GD4 whole entry): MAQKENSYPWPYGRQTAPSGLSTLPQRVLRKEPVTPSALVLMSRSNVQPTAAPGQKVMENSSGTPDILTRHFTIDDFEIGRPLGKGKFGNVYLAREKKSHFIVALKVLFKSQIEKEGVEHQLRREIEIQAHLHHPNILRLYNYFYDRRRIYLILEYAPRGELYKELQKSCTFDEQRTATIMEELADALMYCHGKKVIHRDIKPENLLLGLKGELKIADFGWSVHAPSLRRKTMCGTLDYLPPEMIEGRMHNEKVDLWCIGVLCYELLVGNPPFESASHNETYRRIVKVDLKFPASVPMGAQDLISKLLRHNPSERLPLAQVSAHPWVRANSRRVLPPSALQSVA
Test: Inhibition of full length His-tagged recombinant human AURKB expressed in Baculovirus expression system at 0.1 uM using Fluorescein-PKC as substrate incubated for 1 hr by TR-FRET assay relative to control
Conditions: not given

inhibition | SMILES
45% | CNC(=O)c1c(C(N)=O)nc2n1C1CC(C1)c1ccc(C#CC(C)(C)c3ncc(C)o3)cc1-2
> 40% | Cc1cnc(C(C)(C)C#Cc2ccc3c(c2)-c2nc(C(N)=O)c(C4CC4)n2C2CC3C2)o1

System: not listed separately
Test: Kinetic solubility of the compound
Type: physicochemical
Conditions: read-out: Kinetic_solubility

solubility kinetic | SMILES
13 µM (≈ 5.77 µg/mL) | CNC(=O)c1c(C(N)=O)nc2n1C1CC(C1)c1ccc(C#CC(C)(C)c3ncc(C)o3)cc1-2
124 µM (≈ 51.9 µg/mL) | Cc1cc([C@@](C)(O)C#Cc2ccc3c(c2)-c2nc(C(N)=O)c(C4CC4)n2CCO3)no1
35 µM (≈ 14.9 µg/mL) | Cc1cnc(C(C)(C)C#Cc2ccc3c(c2)-c2nc(C(N)=O)c(C4CC4)n2C2CC3C2)o1
